The results in this text go back to patent US11155523B2, “Biphenyl compound as CCR2/CCR5 receptor antagonist” (Medshine Discovery Inc., priority 2016, dated 2021).

The target of assay [1] is T1, CCR2 (Homo sapiens, UniProt P41597).
T1 construct: expressed in transfected cells; host or cells: HEK293, clone C7, passage P6
The assay can be described thus: CCR2 in vitro test: intracellular calcium signal detected by FLIPR. To be noted: HEK293 cells expressing CCR2, agonist MCP-1 at EC80, calcium signal. The assay is classed as cell-based. The essentials:
(§1)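 Receptor-expressing cells loaded with Fluo-4 Direct and probenecid (2.5 mM final), then preincubated with compounds (11-point 1:3 series) before challenge at EC80 of agonist (MCP-1 for CCR2, RANTES for CCR5). FLIPR calcium max−min signal; IC50 fitted.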
In general terms: Calcium flux is commonly read through the fluorescence of an indicator in the cells.

The target of assay [2] is T2, CYP3A4 (Homo sapiens, UniProt P08684).
T2 construct: from tissue; host or cells: human liver microsomes
In words: Inhibition of human liver microsomal CYP3A4 (midazolam probe). The assay is classed as in vitro ADME. To be noted: human liver microsomes, probe midazolam. The protocol: Experimental Example 4 Inhibition Effect on the Activity of Human Liver Microsomal Cytochrome P450 Isoezymes (CYP1A2, CYP2C9, CYP2C19, CYP2D6 and CYP3A4)
A total of 5 specific probe substrates for CYP's five isozymes, Phenacetin (CYP1A2), Diclofenac (CYP2C9), […] (S)-Mephenytoin, CYP2C19), Dextromethorphan (CYP2D6) and Midazolam (CYP3A4) were incubated with human liver microsomes and test compounds, respectively, and reduced nicotinamide adenine dinucleotide phosphate (NADPH) was added to initiate the reaction. After the reaction, the sample was processed and liquid chromatography tandem mass spectrometry (LC-MS/MS) was used to quantitatively detect the […] metabolites produced by the specific substrate, Acetaminophen and 4′-hydroxydiclofenac, 4′-hydroxymephenytoin, Dextrorphan and 1′-hydroxymidazolam, in order to calculate the corresponding half maximal inhibitory concentration (IC50).
For orientation: Liver microsomes are a subcellular fraction often used to study metabolism.

Assay [3] concerns the target T3, CCR5 (Homo sapiens, UniProt P51681).
T3 construct: expressed in transfected cells; host or cells: HEK293, clone C13, passage P4
The assay can be described thus: CCR5 in vitro test: intracellular calcium signal detected by FLIPR. To be noted: HEK293 cells expressing CCR5, agonist RANTES at EC80, calcium signal. The assay is classed as cell-based. The method in brief: as §1

Where only a bound is given, the exact number is not on record here.

Broadly, the IC50 is the point on the concentration scale where inhibition reaches its midpoint.

T2 sequence (P08684 whole entry): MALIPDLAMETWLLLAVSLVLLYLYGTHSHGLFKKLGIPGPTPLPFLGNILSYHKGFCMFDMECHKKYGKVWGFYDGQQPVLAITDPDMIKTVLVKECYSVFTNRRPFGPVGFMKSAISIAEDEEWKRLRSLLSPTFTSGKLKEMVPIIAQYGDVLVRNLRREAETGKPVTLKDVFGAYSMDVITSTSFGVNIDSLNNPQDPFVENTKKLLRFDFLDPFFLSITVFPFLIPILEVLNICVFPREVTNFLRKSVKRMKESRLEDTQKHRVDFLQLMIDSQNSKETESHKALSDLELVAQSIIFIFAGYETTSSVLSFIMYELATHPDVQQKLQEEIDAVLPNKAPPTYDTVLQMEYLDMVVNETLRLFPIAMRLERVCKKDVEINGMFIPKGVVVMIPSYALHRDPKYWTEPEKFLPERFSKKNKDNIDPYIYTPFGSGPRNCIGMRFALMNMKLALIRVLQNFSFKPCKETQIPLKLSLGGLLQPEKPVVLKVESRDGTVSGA
T3 sequence (P51681 whole entry, species assumed): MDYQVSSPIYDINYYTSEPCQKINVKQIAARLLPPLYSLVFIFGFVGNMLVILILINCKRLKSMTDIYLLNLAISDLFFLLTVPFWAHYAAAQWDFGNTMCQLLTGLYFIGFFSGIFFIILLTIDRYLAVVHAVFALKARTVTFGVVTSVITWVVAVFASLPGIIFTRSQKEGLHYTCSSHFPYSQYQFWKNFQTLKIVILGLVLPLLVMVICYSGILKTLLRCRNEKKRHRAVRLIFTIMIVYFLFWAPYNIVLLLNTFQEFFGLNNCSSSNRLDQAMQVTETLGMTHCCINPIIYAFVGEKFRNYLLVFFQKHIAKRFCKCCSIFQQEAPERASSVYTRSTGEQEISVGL
T1 sequence (P41597 whole entry, species assumed): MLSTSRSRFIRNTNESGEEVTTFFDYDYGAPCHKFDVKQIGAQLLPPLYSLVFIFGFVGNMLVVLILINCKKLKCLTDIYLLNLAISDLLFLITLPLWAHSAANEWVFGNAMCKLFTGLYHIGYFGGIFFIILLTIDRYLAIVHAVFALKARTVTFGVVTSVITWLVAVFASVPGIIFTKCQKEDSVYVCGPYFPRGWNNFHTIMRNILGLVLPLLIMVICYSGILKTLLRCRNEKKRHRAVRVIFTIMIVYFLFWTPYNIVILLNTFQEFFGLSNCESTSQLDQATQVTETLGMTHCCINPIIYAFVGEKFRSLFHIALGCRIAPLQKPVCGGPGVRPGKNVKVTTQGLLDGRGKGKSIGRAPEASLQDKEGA

Consider `CCCCOCCOc1ccc(-c2ccc(OCC)c(/C=C/C(=O)Nc3ccc([S@+]([O-])Cc4c(C)ncn4CC)cc3)c2)cc1` [WX047], for which the half-maximal inhibitory concentration (IC50) is 8.2 nM in assay [1], > 50000 nM in assay [2] and 6.7 nM in assay [3].
